In patent US11819019B2, “Protein-free semen cryopreservation” (University of Saskatchewan, priority 2017, dated 2023):
Where no end group is shown, it is not given here. [ ]: non-standard residue; d: D form. Dmt = Cc1cc(O)cc(C)c1C[C@H](N)C(=O)O

Assays:
equine sperm = conditions: Vidament et al, 2005; cited from earlier work
bull sperm [1] = assay: Frozen-thaw longevity of bull sperm with cell penetrating peptides, CASA at 0, 2 and 4 hrs (Example 8); assay type: cell-based
Description: Semen was collected from four beef bulls using electro-ejaculator. Immediately after collection, 0.5 μM SS31 or mTP4 was added per ml semen. Concentration of up to 20 μM SS31 or mTP4 were also used. Semen transported to Cryobiology Lab where semen was analyzed with CASA. Semen was further diluted with egg yolk extender to 50 million per ml, packaged in straws and frozen following a freezing curve developed in our lab. Frozen semen with and without SS31 was thawed and CASA analysis was conducted at 0 (<15 min), 2 and 4 hrs. Structural characters, i.e. plasma membrane and acrosome, were also analyzed using FITC-PNA and PI assay with flow cytometer, as described in Examples 4 and 5.

bull sperm [2] = assay: Motility of fresh bull sperm after exposure to cell penetrating peptides, CASA (Example 8); assay type: cell-based; conditions: CPPs added at 37° C., FIG. 13
Description: Semen was collected from four bulls using electro-ejaculator. Semen was analyzed with Computer Assisted Semen Analysis (CASA) and washed (2×) with tris citric acid buffer (TB). The washed semen was diluted to 2.2 million/ml with TB. Semen (46 μl) was mixed with 4 μl of 100 μM solution of SS31 or mTP4. TB buffer alone was added in the control sample. […] After incubation, sperm motility was analyzed by CASA and then cells were treated with 2.5 μl propidium iodide (50 μg/ml) or 3 μl SYBR-14. Sperm were fixed with 10 μl of 10%-formaldehyde and another 500 μl PBS was added before flowcytometry analysis.

Compound	concentration in a preservation medium reported to be toxic to equine sperm (equine sperm)	Percent decline motility over time (bull sperm [1]; 4 hr post-thaw, vs control and mTP4 groups, FIG. 15)	post-thaw total sperm motility and progressive motility vs control (bull sperm [1]; semen frozen in egg yolk extender, 0, 2 and 4 hrs post-thaw, FIG. 14)	sperm motility and progressive motility as compared control (bull sperm [2])
OCC(O)CO [Glycerol, glycerol]	greater than 3.5%	–	–	–
D-Arg-DMT-Lys-Phe [SS31]	–	lesser	better	improved
DMT-D-MWWRRSRTNSLRYT ([Dmt][dM]WWRRSRTNSLRYT) [mTP4]	–	–	–	improved
